Results reported in US6933285B2, “Flavin N-oxides: new anti-cancer agents and pathogen eradication agents” (The Ohio State University, priority 2002, dated 2005).

Experiments:
[1] = system: bacteriophage Φ6; conditions: platelet concentrates, normal oxygen tension, UVA; cited from earlier work
[2] = system: non-enveloped parvoviruses; conditions: cited from earlier work
[3] = system: PA-Lymphoblastoid Cell Line; experiment: PA-Lymphoblastoid cell viability under oxygen deprivation in the presence of sensitizers; type: cell-based; conditions: PA-Lymphoblastoid cells; for cell count at Time (hour) 0 / cell count at Time (hour) 4 / cell count at Time (hour) 20: solutions and cells bubbled with nitrogen 15 minutes; for cell count at Time (hour) 0: time 0 hour; for cell count at Time (hour) 4: time 4 hour; for cell count at Time (hour) 20: time 20 hour
Protocol: PA-Lymphoblastoid Cell Line: Study of the effect of oxygen deprivation in the presence of 3 sensitizers Six solutions were prepared having the solutions and the cells from each of the 6 sets were “bubbled” with nitrogen separately for 15 minutes before being mixed.
The results of this study are shown graphically in FIG. 5.

[4] = Water solubility; type: physicochemical
Excerpt: Riboflavin N-oxide, is one example of a flavin N-oxide, it is water soluble and electrically neutral. Additionally, upon fragmentation of the neutral radical, riboflavin N-oxide forms the hydroxyl radical, which damages the nucleic acid, and riboflavin, vitamin B2, which is generally regarded as safe in humans.
In the methods of the present invention, the flavin N-oxides are introduced to the composition containing the blood products. It is preferred that the flavin N-oxides of the present invention are water-soluble. By “water soluble” we mean that it is preferred that the solubility of the flavin N-oxides is at least 100 micromolar in water. An exemplary flavin N-oxide for the methods of the present invention is riboflavin N-oxide. Once introduced to the blood product composition, riboflavin N-oxide, which is electrically neutral, may passively transport into cells, where it is enzymatically activated to form a radical anion. Additionally, riboflavin N-oxide may be activated by electromagnetic radiation. When electromagnetic radiation is used as the activator, the wavelength of light is preferably in the visible region.

SMILES	inactivation of the virus bacteriophage Φ6 [1]	potency towards the non-enveloped parvoviruses [2]	hypoxic toxicity ([3]; oxygen deprivation)	cell count at Time (hour) 0 [3]	cell count at Time (hour) 4 [3]	cell count at Time (hour) 20 [3]	water solubility [4]
COc1c2occc2cc2ccc(=O)oc12 [8-MOP]	completely inactivate	–	–	–	–	–	–
Cc1oc2c(C)c3oc(=O)cc(C)c3cc2c1CN [AMT]	completely inactivate	limited potency	–	–	–	–	–
Cc1cc2c(cc1C)[n+]([O-])c1c(=O)[nH]c(=O)nc-1n2CC(O)C(O)C(O)CO (centres unmarked) [RBO, riboflavin N-oxide]	–	–	high hypoxic toxicity	0.45 million cells/mL	0.46 million cells/mL	0.06 million cells/mL	water soluble
Cc1cc2nc3c(=O)[nH]c(=O)nc-3n(C[C@H](O)[C@H](O)[C@H](O)CO)c2cc1C [Riboflavin (RB), Riboflavin]	–	–	–	1 million cells/mL	0.9 million cells/mL	0.63 million cells/mL	–
Nc1n[n+]([O-])c2ccccc2[n+]1[O-] [Tirapazamine (TPZ), Tirapazamine]	–	–	–	0.4 million cells/mL	0.4 million cells/mL	0.36 million cells/mL	–
